Experiments:
[1] = Aqueous solubility of Compound I; type: physicochemical; conditions: water
[2] = Solubility of Compound I anhydrous Polymorph B in various liquid vehicles (suspension equilibrated at least 24 hours, filtered, HPLC); type: physicochemical; conditions: aqueous with cosolvent or surfactant or cyclodextrin, thermodynamic from solid
Procedure: Solubility determinations were carried out at room temperature unless otherwise specified. Solubility of N-[1S,2S]-3-(4-chlorophenyl)-2-(3-cyanophenyl)-1-methylpropyl]-2-methyl-2-{[5-trifluoromethyl]pyridine-2-yl}oxy}propanamide (Compound I) as anhydrous unsolvated Polymorph B (such as prepared in Preparatory Example 2) was determined by preparing a suspension of anhydrous Polymorph B of Compound I in the solvent system. After equilibration for at least 24 hours, the suspension was filtered and the supernatant was analyzed by HPLC. Chromatography was performed on either a Vydac C18 300 Å 250×4.6 mm 5 μm particle size with in-line Phenomenex Security Guard w/C18 cartridge or on a Polaris C18-Ether columns or on a Polaris C8-Ether columns using 0.1% phosphoric acid in combination with methanol or acetonitrile depending on HPLC conditions. The compound was detected at 220 and 272 nm wavelength and assayed using standard curves. The results are presented below in Table 1, calculated based on mg/g vehicle.

solubility [1]: < 0.4 µg/mL
solubility ([2]; 40% H2O, 35% Captisol, 15% glycerol, 10% EtOH, 40% H20, room temperature): 20 µg/mL
solubility ([2]; 50% H2O, 25% PG, 25% PEG300, 50% H20, room temperature): 70 µg/mL
solubility ([2]; 90% H2O, 10% glycerol, 90% H20, room temperature): < 1 µg/mL
solubility ([2]; 94.5% H2O, 0.5% Tween80, 5% EtOH, 94.5% H20, room temperature): 80 µg/mL
solubility ([2]; 95.5% H2O, 0.5% Tween80, 95.5% H20, room temperature): 80 µg/mL
solubility ([2]; 97.5% H2O, 2.5% Tween80, 97.5% H20, room temperature): 400 µg/mL
solubility ([2]; 99.75% H2O, 0.25% Tween80, 99.75% H20, room temperature): 40 µg/mL
solubility ([2]; 0.5% Tween80, 95.5% Saline, room temperature): 80 µg/mL
solubility ([2]; 10% EtOH, 90% H2O, room temperature): < 1 µg/mL
solubility ([2]; 15% glycerol, 10% EtOH, 75% H2O, room temperature): < 1 µg/mL
solubility ([2]; 25% PEG400, 75% H2O, room temperature): 4 µg/mL
solubility ([2]; 35% hydroxypropyl beta cyclodextrin, 18% glycerol, 10% EtOH, 37% H20, room temperature): 40 µg/mL
Structure (SMILES): C[C@H](NC(=O)C(C)(C)Oc1ccc(C(F)(F)F)cn1)[C@@H](Cc1ccc(Cl)cc1)c1cccc(C#N)c1 [Compound I, N-[1S,2S]-3-[(4-chlorophenyl)-2-(3-cyanophenyl)-1-methylpropyl]-2-methyl-2-{[(5-trifluoromethyl)pyridine-2-yl]oxy}propanamide]

From patent US20100216848A1, “LIQUID PHARMACEUTICAL COMPOSITIONS FOR PARENTERAL ADMINISTRATION OF A SUBSTITUTED AMIDE” (priority 2007, published 2010)
